Results taken from US20240196889A1, “USE OF DI- AND TRI[…] ACIDS IN THE PREVENTION OF BIOFILM FORMATION” (priority 2020, published 2024).
≈ marks a conversion by molar mass, not a printed value.

What was measured:
[1] = system: Salmonella; experiment: Minimal inhibitory concentration (MIC) assay; assay type: cell-based, Salmonella enterica serovar Typhimurium; conditions: TSB 1/20, 24 h, 25° C., same conditions as the biofilm assay
Method: MIC values were determined in a 96-well plate. Two-fold serial dilutions of agaric acid or DMSO were prepared in 100 μl of TSB 1/20 and 100 μL of the inoculum diluted 1/100 in TSB 1/20 was added. The plate was covered with a Breathable Sealing Membrane and a lid and incubated for 24 h at 25° C., shaking at 200 rpm.

[2] = system: Salmonella genes related to biofilm formation; experiment: Microtiter-plate-based GFP promoter fusion assay; assay type: cell-based, Salmonella Typhimurium ATCC 14028; conditions: 100 μM
Method: To unravel the mechanism by which agaric acid inhibits biofilm formation, an in house developed reporter GFP-promoter fusion library was screened. This library contains reporters for 130 Salmonella genes related to biofilm formation, including genes regulating matrix production, fimbriae and flagella synthesis, quorum sensing and c-di-GMP regulation (Table 2) [Robijns et al. (2014). Biofouling 30, 605-625.]. A time-lapse of the first 24 h of biofilm formation in microtiter plates was performed to identify genes that are differentially transcribed in the presence of 100 μM agaric acid. As these reporter fusions express the stable GFPmut3 variant as a fluorophore, the measured fluorescence values are the accumulation of fluorescence over time [Robijns et al. (2014). Biofouling 30, 605-625](FIG. 2).
1.5 μl of the reporter fusions' ONCs were transferred in three repeats to black polystyrene, clear-bottomed microtiter plates (Greiner bio-one 655096) containing 200 μl of 1/20 TSB with either a final concentration of 100 μM agaric or the corresponding amount of DMSO. Subsequently, the microtiter plates were incubated statically, at 25° C. for 24 h. Every 3 h, the fluorescence (excitation 488 nm, emission 511 nm) and absorbance at 600 nm (OD600) were measured using a Synergy MX multimode reader. For data analysis, blank measurements were subtracted from both the fluorescence (using a promoterless pFPV25 vector as control) and OD600. The ratio between the different OD600 values of the strains/conditions was used to normalize any effects on the fluorescence caused by growth differences in the bacteria. Significant differences in the level of fluorescence between treatment and control were determined using a two-tailed Student t-test (P<0.05).

[3] = system: motA deletion mutant; experiment: Biofilm formation of motA deletion mutant; assay type: cell-based, Salmonella; conditions: addition of agaric acid to the deletion mutant
[4] = system: Salmonella Typhimurium ATCC 14028; experiment: Antibiofilm assay (static peg assay, Calgary biofilm device, crystal violet staining; planktonic growth via OD600); assay type: cell-based, Salmonella enterica serovar Typhimurium
Method: A static peg assay for the prevention of bacterial biofilm formation was used as described previously. A lid carrying 96 polystyrene pegs was fitted into a microtiter plate with a peg hanging into each well. Two-fold serial dilutions of the compounds in 100 μl liquid broth per well were prepared in the microtiter plate. Subsequently, an overnight culture was diluted 1:100 into the respective liquid broth, and 100 μl (˜10^6 cells) was added to each well of the microtiter plate, resulting in a total amount of 200 μl medium per well. After placing the lid on the microtiter plate, samples containing Salmonella, Pseudomonas or E. coli were incubated statically in TSB 1/20 for 48 h at 25° C., whereas S. aureus was incubated in undiluted TSB at 37° C. for 48 h. After incubation, the lid was removed from the microtiter plate and liquid culture was transferred to a new microtiter plate prior to determining the prior to determining the planktonic growth in each well via OD600 measurements using a Synergy MX multimode reader (Biotek, Winooski, VT). The pegs were washed once in 200 μl PBS and the remaining attached bacteria were stained for 30 min with 200 μl 0.1% crystal violet in an isopropanol-methanol-PBS solution (1:1:18). Excess stain was washed off by placing the pegs in a 96-well plate filled with 200 μl distilled water per well. Afterwards, the pegs were air dried for 30 min and the dye bound to the adherent cells dissolved into 200 μl 30% glacial acetic acid. The OD570 of each well was measured using a Synergy MX multimode reader. Data was analysed using the GraphPad Prism 6 software.

[5] = system: Salmonella Typhimurium ATCC 14028; experiment: Staining of flagella; assay type: cell-based, Salmonella enterica serovar Typhimurium; conditions: 100 μM vs DMSO, 24 h
Method: An ONC of Salmonella Typhimurium ATCC 14028 was diluted 1/100 in 5 ml TSB 1/20, with either a final concentration of 100 μM agaric or the corresponding amount of DMSO as a control. The planktonic cultures were incubated for 24 h at 25° C., shaking at 200 rpm. The flagella were stained according to Kearns and Losick (2003) Molecular microbiology 49, 581-590. Briefly, the stain consist of ten parts mordant (2 g tannic acid, 10 ml 5% phenol, 10 ml saturated aqueous AIK(SO4)2) mixed with one part stain (12% crystal violet in ethanol). 3 μl of sample was applied to a microscopic slide and covered with a 22 mm×40 mm coverslip. After placing the slide vertically, 10 μl was applied to the top edge of the coverslip in order to stain the sample due to capillary forces. Samples were visualized with phase contrast using a Zeiss Axio Imager Z1 microscope with an EC Plan Neofluar (×100 magnification/1.3 numerical aperture) objective.

CCCCCCCCCCCCCCCCC(C(=O)O)C(O)(CC(=O)O)C(=O)O (stereo not shown) [Agaric acid, 2-hydroxynonadecane-1,2,3-tricarboxylic acid]
MIC [1]: 8 mM (≈ 3330 µg/mL) | transcription of class III flagellar genes flgM, flgK and motA [2]: significantly reduced | transcription of tdcA, flgB, fljB and fliC [2]: not decreased at consecutive points | transcription of flhDC ([2]; between 9 h and 15 h): increased compared to the control | transcription of csgB and adrA ([2]; first 24 h): not influenced | transcription of central biofilm regulatory genes CsgD and RpoS ([2]; first 24 h of biofilm formation): not downregulated | transcription of flagellar sigma factor fliA ([2]; from 12 h onwards): significantly inhibited | biofilm formation of motA deletion mutant [3]: did not further reduce biofilm formation | inhibition at 800 µM ([4]; Salmonella enterica, at 800 μM, crystal violet staining, read-out: inhibition of biofilm formation): 99.9% | planktonic growth (OD600) ([4]; after 48 h incubation in the Calgary biofilm device): not inhibited | concentrations at which biofilm formation is significantly prevented ([4]; crystal violet staining, TSB 1/20, 48 h, 25° C.): higher than 100 μM | planktonic growth (OD600) at the highest concentration ([4]; highest concentration tested): enhanced | flagellar appearance [5]: no differences in flagellar appearance
